In patent publication US8071778B2, “Substituted heterocyclic ethers and their use in CNS disorders” (Bristol-Myers Squibb Company, priority 2006, dated 2011):
Where two headings read alike, the source gives them in different places.

How the values were obtained:
NK-1 = biological target: T1, NK-1 (Homo sapiens, UniProt P25103); assay: NK1 radioligand binding assay; details: U373 membrane preparation, [125I]Substance P
T1 construct: endogenous in cells; host or cells: U373 cells (crude membranes)
Experimental: (§1) NK-1 Binding assay. Crude membrane suspensions were prepared for the NK1 and SERT radioligand binding assays from U373 cells or recombinant HEK-293 cells expressing hSERT, respectively. […] The medium is removed from the flasks and the cells rinsed with HBSS without Ca and without Mg. The cells are then incubated for 5-10 minutes in 10 mM Tris-Cl, pH 7.5, 5 mM EDTA before the cells are lifted with a combination of pipetting and scraping, as needed. To prepare membranes, the cell suspension is collected into centrifuge bottles and homogenized for 30 seconds with a Polytron homogenizer. The suspension is centrifuged for 30 min 32,000×g, 4° C., then the supernatant is decanted and the pellet resuspended and homogenized in 50 mM Tris-Cl, pH 7.5, 1 mM EDTA for 10 seconds. The suspension is then centrifuged again for 30 min 32,000×g, 4° C. The supernatant is decanted and the pellet resuspended in 50 mM Tris-Cl, pH 7.5, 1 mM EDTA and briefly homogenized. A Bradford assay (Bio-rad) is performed and the membrane preparation diluted to 2 mg/ml with 50 mM Tris-Cl, pH 7.5, 1 mM EDTA. Aliquots are prepared, and then frozen and stored at −80° C.
(§2) NK1 radioligand binding assay. Compounds are dissolved in 100% DMSO at a concentration 100× the desired highest assay concentration, serially diluted 1:3 in 100% DMSO, and 0.6 ul/well of each solution is dispensed to a Nunc polypropylene, round bottom, 384 well plate. […] The contents of the assay plate are then transferred to a Millipore MultiscreenHTS GF/B filter plate which has been pretreated with 0.5% PEI for at least one hour. The plate is vacuum filtered and washed with 7 washes of 100 ul/well of 20 mM Tris-Cl, pH 7.5, 0.5% (w/v) BSA chilled to 4° C. The filtration and washing is completed in less than 90 s. The plates are air-dried overnight, 12 ul/well of MicroScint scintillation fluid added, and the plates counted in a Trilux.
(§3) Data analysis. […] Each plate is run in triplicate, and the concentration response curve thus generated is fit using the four-parameter dose response equation, Y=Bottom+(Top-Bottom)/(1+10^((Log IC50−X)*HillSlope)) in order to determine the IC50 value for each compound. The radioligand concentration chosen for each assay corresponds to the Kd concentration determined through saturation binding analysis for each assay.

hSERT = biological target: T2, hSERT (Homo sapiens, UniProt P31645); assay: SERT radioligand binding assay
T2 construct: expressed in transfected cells; host or cells: HEK-293 cells (crude membranes)
Experimental: as §1
as §2, with “SERT” for “NK1”, “0.4” for “0.6”, “50” for “20”, “120 mM NaCl, 5 mM KCl” for “0.5% (w/v) BSA”
as §3

[1] = HEK-hSERT membrane preparation, [125I]RTI-55, read-out: SERT IC50

T1 sequence (P25103 whole entry): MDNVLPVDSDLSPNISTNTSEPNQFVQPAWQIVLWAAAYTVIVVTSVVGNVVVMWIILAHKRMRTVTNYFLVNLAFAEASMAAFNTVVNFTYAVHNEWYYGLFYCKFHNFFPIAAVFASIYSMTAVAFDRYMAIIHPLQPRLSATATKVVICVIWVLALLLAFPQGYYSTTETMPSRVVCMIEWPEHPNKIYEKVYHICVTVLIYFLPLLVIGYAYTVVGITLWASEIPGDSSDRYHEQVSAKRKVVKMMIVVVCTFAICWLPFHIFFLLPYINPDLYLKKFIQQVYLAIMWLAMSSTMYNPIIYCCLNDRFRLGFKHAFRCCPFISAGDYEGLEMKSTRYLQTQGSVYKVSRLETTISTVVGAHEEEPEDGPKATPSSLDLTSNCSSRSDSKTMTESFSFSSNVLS
T2 sequence (P31645 whole entry): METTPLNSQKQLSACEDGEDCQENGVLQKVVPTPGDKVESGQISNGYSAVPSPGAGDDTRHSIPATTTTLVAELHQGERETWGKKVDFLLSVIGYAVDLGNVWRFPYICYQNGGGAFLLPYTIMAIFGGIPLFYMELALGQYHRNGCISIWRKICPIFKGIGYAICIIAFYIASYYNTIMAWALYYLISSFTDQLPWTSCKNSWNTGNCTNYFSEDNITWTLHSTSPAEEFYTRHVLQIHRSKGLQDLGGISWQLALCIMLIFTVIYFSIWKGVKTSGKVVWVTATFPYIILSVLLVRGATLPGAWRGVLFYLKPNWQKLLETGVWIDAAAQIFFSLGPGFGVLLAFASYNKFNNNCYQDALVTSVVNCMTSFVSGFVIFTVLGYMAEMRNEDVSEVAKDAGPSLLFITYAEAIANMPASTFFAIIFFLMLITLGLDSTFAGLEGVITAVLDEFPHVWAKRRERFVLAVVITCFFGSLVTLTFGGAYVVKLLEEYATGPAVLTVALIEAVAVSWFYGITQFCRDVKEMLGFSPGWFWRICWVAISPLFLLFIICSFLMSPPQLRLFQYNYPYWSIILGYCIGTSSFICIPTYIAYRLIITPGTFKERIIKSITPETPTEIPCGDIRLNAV

Compound	IC50 (NK-1)	IC50 (hSERT)	IC50 (hSERT; [1])
CN1CCC(COCc2cc(C(F)(F)F)cc(-c3ccc(C#N)cc3)n2)(c2ccc(C#N)cc2)CC1 [Example 84]	0.01 to 100 nM	0.01 to 100 nM	–
CC(OCC1(c2ccccc2)CCNCC1)c1cc(C(F)(F)F)cc(C#N)n1 (stereo not drawn) [Example 32]	0.01 to 100 nM	–	0.01 to 100 nM
CN1CCC(COCc2cc(-c3ccc(C#N)cc3)nc(-c3ccc(C#N)cc3)c2)(c2ccccc2)CC1 [Example 67]	> 300 nM	100 to 300 nM	–
Fc1ccc(C2(COCc3cc(C(F)(F)F)cc(N4CCCC4)n3)CCNCC2)cc1 [Example 20]	0.01 to 100 nM	–	0.01 to 100 nM
Fc1ccc(C2(COCc3cc(C(F)(F)F)cc(N4CC=CC4)n3)CCNCC2)cc1 [Example 19]	0.01 to 100 nM	–	0.01 to 100 nM
COC(=O)c1ccc(-c2cc(C(F)(F)F)cc(COCC3(c4ccc(F)cc4)CCN(C)CC3)n2)c(F)c1 [Example 63]	0.01 to 100 nM	0.01 to 100 nM	–
COc1ccc(-c2cc(C(F)(F)F)cc(COCC3(c4ccccc4)CCN(C)CC3)n2)cc1 [Example 38, 2-(4-methoxyphenyl)-6-(((1-methyl-4-phenylpiperidin-4-yl)methoxy)methyl)-4-(trifluoromethyl)pyridine]	0.01 to 100 nM	0.01 to 100 nM	–
N#Cc1ccc(-c2cc(C(F)(F)F)cc(COCC3(c4ccccc4)CCNCC3)n2)cc1 [Example 6]	0.01 to 100 nM	–	0.01 to 100 nM
CN1CCC(COCc2ccc(-c3ccc(Cl)cc3)nc2)(c2ccccc2)CC1 [Example 50]	> 300 nM	0.01 to 100 nM	–
CN1CCC(COCc2cc(C(F)(F)F)cc(-c3ccc(C#N)cc3)n2)(c2cccc(F)c2)CC1 [Example 85]	0.01 to 100 nM	0.01 to 100 nM	–
c1ccc(C2(COCc3cncc(-c4ccco4)c3)CCNCC2)cc1 [Example 9]	> 300 nM	–	0.01 to 100 nM
CN1CCC(COCc2cc(C(F)(F)F)cc(-c3ncon3)n2)(c2ccc(F)cc2)CC1 [Example 37, 3-(6-(((4-(4-fluorophenyl)-1-methylpiperidin-4-yl)methoxy)methyl)-4-(trifluoromethyl)pyridin-2-yl)-1,2,4-oxadiazole]	100 to 300 nM	0.01 to 100 nM	–
CN1CCC(COCc2cc(C(F)(F)F)cc(N3CCCC3)n2)(c2ccc(F)cc2)CC1 [Example 59]	0.01 to 100 nM	–	0.01 to 100 nM
N#CC1CCN(c2cc(C(F)(F)F)cc(COCC3(c4ccc(F)cc4)CCNCC3)n2)C1 (stereo not drawn) [Example 18]	0.01 to 100 nM	–	0.01 to 100 nM
CC(OCC1(c2ccccc2)CCN(C)CC1)c1cc(C(F)(F)F)cc(-c2ccc(C#N)cc2)n1 (stereo not drawn) [Example 46]	0.01 to 100 nM	0.01 to 100 nM	–
CC(OCC1(c2ccccc2)CCNCC1)c1cc(C(F)(F)F)cc(N2CCOCC2)n1 (stereo not drawn) [Example 23]	0.01 to 100 nM	–	0.01 to 100 nM
CC(OCC1(c2ccc(F)cc2)CCN(C)CC1)c1cc(C(F)(F)F)cc(Br)n1 (stereo not drawn) [Example 33, 2-bromo-6-(1-((4-(4-fluorophenyl)-1-methylpiperidin-4-yl)methoxy)ethyl)-4-(trifluoromethyl)p]	0.01 to 100 nM	0.01 to 100 nM	–
CC(OCC1(c2ccc(F)cc2)CCN(C)CC1)c1cc(C(F)(F)F)cc(N2CCCC2)n1 (stereo not drawn) [Example 86]	0.01 to 100 nM	0.01 to 100 nM	–
CN1CCC(COCc2cc(C(F)(F)F)cc(-c3ccc(C#N)cc3)n2)(c2ccccc2F)CC1 [Example 54]	0.01 to 100 nM	100 to 300 nM	–
N#Cc1cc(C(F)(F)F)cc(COCC2(c3ccccc3)CCNCC2)n1 [Example 31]	> 300 nM	–	0.01 to 100 nM
Cc1cc(-c2cc(C(F)(F)F)cc(COCC3(c4ccc(F)cc4)CCN(C)CC3)n2)ccc1C#N [Example 61]	0.01 to 100 nM	0.01 to 100 nM	–
Cc1ccc(-c2cc(C(F)(F)F)cc(COCC3(c4ccccc4)CCN(C)CC3)n2)cc1 [Example 40]	0.01 to 100 nM	0.01 to 100 nM	–
FC(F)(F)c1cc(COCC2(c3ccccc3)CCNCC2)nc(N2CCOCC2)c1 [Example 15]	0.01 to 100 nM	–	100 to 300 nM

Compound	IC50 (NK-1)	IC50 (hSERT)	IC50 (hSERT; [1])
Cc1cc(-c2cc(C(F)(F)F)cc(COCC3(c4ccc(F)cc4)CCNCC3)n2)ccc1C#N [Example 11]	0.01 to 100 nM	–	0.01 to 100 nM
CN1CCC(COCc2cc(C(F)(F)F)cc(N3CCC(N4CCCC4)CC3)n2)(c2ccccc2)CC1 [Example 88]	> 300 nM	–	0.01 to 100 nM
C[C@@H]1CCCN1c1cc(C(F)(F)F)cc(COCC2(c3ccc(F)cc3)CCN(C)CC2)n1 [Example 94]	0.01 to 100 nM	0.01 to 100 nM	–
COc1cc(COCC2(c3ccc(F)cc3)CCN(C)CC2)cc(-c2ccc(C#N)cc2)n1 [Example 76]	0.01 to 100 nM	0.01 to 100 nM	–
CN1CCC(COCc2cc(C(F)(F)F)cc(-c3ccc(C#N)cc3)n2)(c2cccc(C(F)(F)F)c2)CC1 [Example 83]	0.01 to 100 nM	100 to 300 nM	–
FC(F)(F)c1cc(COCC2(c3ccccc3)CCNCC2)nc(-c2ccncc2)c1 [Example 2]	0.01 to 100 nM	–	0.01 to 100 nM
C[C@H]1CCCN1c1cc(C(F)(F)F)cc(COCC2(c3ccc(F)cc3)CCN(C)CC2)n1 [Example 93]	0.01 to 100 nM	0.01 to 100 nM	–
CN1CCC(COCc2cc(C(F)(F)F)cc(-c3ccc(C#N)cc3)n2)(c2ccc(F)cc2F)CC1 [Example 64]	0.01 to 100 nM	100 to 300 nM	–
Cc1cc(-c2cc(C(F)(F)F)cc(C(C)OCC3(c4ccc(F)cc4)CCN(C)CC3)n2)ccc1C#N (stereo not drawn) [Example 97]	0.01 to 100 nM	100 to 300 nM	–
COc1ccc(-c2cc(C(F)(F)F)cc(COCC3(c4ccccc4)CCNCC3)n2)cc1 [Example 1, 2-(4-methoxyphenyl)-6-(((4-phenylpiperidin-4-yl)methoxy)methyl)-4-(trifluoromethyl)pyridine]	0.01 to 100 nM	–	0.01 to 100 nM
CN1CCC(COCc2cc(C(F)(F)F)cc(N3CCC(F)(F)C3)n2)(c2ccc(F)cc2)CC1 [Example 89]	0.01 to 100 nM	0.01 to 100 nM	–
CC(OCC1(c2ccccc2)CCN(C)CC1)c1cc(C(F)(F)F)cc(-c2ccc(F)cc2)n1 (stereo not drawn) [Example 34, 2-(4-fluorophenyl)-6-(1-((1-methyl-4-phenylpiperidin-4-yl)methoxy)ethyl)-4-(trifluoromethyl)pyridine]	0.01 to 100 nM	–	0.01 to 100 nM
CN1CCC(COCc2cc(C(F)(F)F)cc(-c3ccc(C#N)cc3)n2)(c2cccc(Cl)c2)CC1 [Example 82]	0.01 to 100 nM	0.01 to 100 nM	–
Fc1ccc(C2(COCc3cc(C(F)(F)F)cc(-c4ccc(F)cc4F)n3)CCNCC2)cc1 [Example 12]	0.01 to 100 nM	–	0.01 to 100 nM
FC(F)(F)c1ccc(-c2cc(C(F)(F)F)cc(COCC3(c4ccccc4)CCNCC3)n2)cc1 [Example 3]	> 300 nM	–	100 to 300 nM
COc1ccc(-c2cc(C(F)(F)F)cc(COCC3(c4ccc(F)cc4)CCN(C)CC3)n2)cc1F [Example 75]	0.01 to 100 nM	0.01 to 100 nM	–
CN1CCC(COCc2cc(C(F)(F)F)cc(-c3ccc(F)cc3F)n2)(c2ccc(F)cc2)CC1 [Example 62]	0.01 to 100 nM	0.01 to 100 nM	–
CN1CCC(COCc2cc(C(F)(F)F)cc(-c3ccc(C#N)cc3)n2)(c2ccc(F)c(F)c2)CC1 [Example 81]	0.01 to 100 nM	0.01 to 100 nM	–
COc1cc(OC)nc(COCC2(c3ccccc3)CCNCC2)n1 [Example 30, 4,6-dimethoxy-2(((4-phenylpiperidin-4-yl)methoxy)methyl)pyrimidine]	> 300 nM	–	100 to 300 nM
Clc1ccc(-c2ccc(COCC3(c4ccccc4)CCNCC3)cn2)cc1 [Example 10]	> 300 nM	–	0.01 to 100 nM
CN1CCC(COCc2cc(C(F)(F)F)cc(-c3ccncc3)n2)(c2ccccc2)CC1 [Example 39]	0.01 to 100 nM	0.01 to 100 nM	–
CCN(c1cc(C(F)(F)F)cc(COCC2(c3ccc(F)cc3)CCN(C)CC2)n1)C(C)C [Example 73]	0.01 to 100 nM	0.01 to 100 nM	–
